Data as given in PubChem BioAssay (NCI).
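Step 1: Grow cells in 96-well plates. Step 2: Expose to compound for 48 hours at 5 concentrations. Step 3: Interpolate endpoints linearly; if unreached, use highest concentration. GI50: concentration for 50% inhibition of growth. At the TGI there is no net growth.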

Key:
Experiment in all cases: NCI anticancer screen, dose series, 48 h
[1] = system: UACC-257 melanoma
[2] = system: KM12 colon
[3] = system: SK-OV-3 ovarian
[4] = system: SK-MEL-2 melanoma
[5] = system: NCI-H460 lung
[6] = system: OVCAR-5 ovarian
[7] = system: ACHN renal
[8] = system: A498 renal
[9] = system: COLO 205 colon
[10] = system: DU-145 prostate
[11] = system: CAKI-1 renal
[12] = system: OVCAR-3 ovarian
[13] = system: SNB-75 CNS
[14] = system: UO-31 renal
[15] = system: SF-539 CNS
[16] = system: HT29 colon
[17] = system: MDA-MB-435
[18] = system: T-47D breast
[19] = system: SF-268 CNS
[20] = system: HOP-92 NSCLC
[21] = system: NCI-H226 lung
[22] = system: SW-620 colon
[23] = system: OVCAR-4 ovarian
[24] = system: U251 CNS
[25] = system: UACC-62 melanoma
[26] = system: OVCAR-8 ovarian
[27] = system: NCI-H522 lung
[28] = system: MCF7 breast
[29] = system: SN12C renal
[30] = system: HCC-2998 colon
[31] = system: SK-MEL-5 melanoma
[32] = system: RXF 393 renal
[33] = system: A549 NSCLC
[34] = system: 786-0 renal
[35] = system: HL-60(TB) leukemia
[36] = system: SR leukemia
[37] = system: EKVX NSCLC
[38] = system: HCT-116 colon
[39] = system: TK-10 renal
[40] = system: SNB-19 CNS
[41] = system: K-562 leukemia
[42] = system: SF-295 CNS
[43] = system: M14 melanoma
[44] = system: LOX IMVI melanoma
[45] = system: BT-549 breast
[46] = system: NCI/ADR-RES ovarian
[47] = system: CCRF-CEM leukemia
[48] = system: SK-MEL-28 melanoma
[49] = system: MOLT-4 leukemia
[50] = system: PC-3 prostate
[51] = system: MDA-MB-231 breast
[52] = system: IGROV1 ovarian
[53] = system: HCT-15 colon
[54] = system: RPMI-8226 leukemia

For `COc1cnc2c(c1)C(=O)c1c-2n(CCCN2CCNCC2)c(=O)c2cc(Cl)ccc12`, the GI50 [1] was 2.19 µM, the TGI [1] was 4.82 µM and the GI50 [2] was 0.55 µM. For the same compound, the TGI [2] was 2.04 µM, the GI50 [3] was 1.16 µM and the TGI [3] was 2.51 µM. The GI50 [4] was 2.11 µM, the TGI [4] was 4.65 µM and the GI50 [5] was 0.0449 µM. The TGI [5] was 1.29 µM, the GI50 [6] was 1.74 µM and the TGI [6] was 3.31 µM. The GI50 [7] was 0.181 µM, the TGI [7] was 1.27 µM and the GI50 [8] was 0.551 µM. It also gave a TGI [8] of 2.28 µM, a GI50 [9] of 0.783 µM and a TGI [9] of 2.41 µM. For the same compound, the GI50 [10] was 0.242 µM, the TGI [10] was 1.2 µM and the GI50 [11] was 0.414 µM. The TGI [11] was 1.91 µM, the GI50 [12] was 1.43 µM and the TGI [12] was 2.83 µM. The GI50 [13] was 0.291 µM, the TGI [13] was 1.69 µM and the GI50 [14] was 1.03 µM. It also gave a TGI [14] of 2.41 µM, a GI50 [15] of 1.33 µM and a TGI [15] of 2.63 µM. The GI50 [16] was 0.66 µM, the TGI [16] was 2.21 µM and the GI50 [17] was 1.25 µM. For the same compound, the TGI [17] was 2.59 µM, the GI50 [18] was 8.98 µM and the TGI [18] was 50.3 µM. The GI50 [19] was 1.07 µM, the TGI [19] was 2.63 µM and the GI50 [20] was 1.12 µM. It also gave a TGI [20] of 13.7 µM, a GI50 [21] of 1.04 µM and a TGI [21] of 4.91 µM. It also gave a GI50 [22] of 0.0856 µM, a TGI [22] of 1.82 µM and a GI50 [23] of 1.17 µM. The TGI [23] was 2.73 µM.

`CC(C)=CCC/C(C)=C/CC/C(=C/COP(=O)(OCc1ccc([N+](=O)[O-])o1)N(C)CCCCCl)CC=C(C)C` (stereo not drawn) gave a GI50 [24] of 2.78 µM, a TGI [24] of 11.8 µM and a GI50 [25] of 14.3 µM. The TGI [25] was 32.5 µM, the GI50 [26] was 3.04 µM and the TGI [26] was 13.5 µM. For the same compound, the GI50 [27] was 2.04 µM, the TGI [27] was 7.47 µM and the GI50 [1] was 6.57 µM. It also gave a TGI [1] of 22.5 µM, a GI50 [28] of 1.88 µM and a TGI [28] of 5.91 µM. It also gave a GI50 [2] of 2.98 µM, a TGI [2] of 17.1 µM and a GI50 [3] of 18.2 µM. It also gave a TGI [3] of 55.8 µM, a GI50 [29] of 2.98 µM and a TGI [29] of 12.3 µM. The GI50 [30] was 0.0597 µM, the TGI [30] was 2.45 µM and the GI50 [4] was 3.09 µM. The TGI [4] was 14.1 µM, the GI50 [31] was 3.96 µM and the TGI [31] was 12.1 µM. The GI50 [5] was 3.75 µM, the TGI [5] was 11.8 µM and the GI50 [32] was 6.03 µM. The TGI [32] was 22.8 µM, the GI50 [33] was 8.66 µM and the TGI [33] was 24.2 µM. It also gave a GI50 [34] of 5.7 µM, a TGI [34] of 19.2 µM and a GI50 [6] of 10.6 µM. It also gave a TGI [6] of 24.3 µM, a GI50 [35] of 4.81 µM and a TGI [35] of over 100 µM. It also gave a GI50 [36] of 3.02 µM, a TGI [36] of over 100 µM and a GI50 [9] of 8.01 µM. It also gave a TGI [9] of 66.4 µM, a GI50 [10] of 1.94 µM and a TGI [10] of 18.6 µM. The GI50 [37] was 3.73 µM, the TGI [37] was 19.8 µM and the GI50 [38] was 2.06 µM. The TGI [38] was 7.97 µM, the GI50 [39] was 14.6 µM and the TGI [39] was 30.8 µM. The GI50 [40] was 19.5 µM, the TGI [40] was 41.9 µM and the GI50 [41] was 9.45 µM. The TGI [41] was over 100 µM, the GI50 [42] was 7.14 µM and the TGI [42] was 26 µM. For the same compound, the GI50 [43] was 2.62 µM, the TGI [43] was 10.2 µM and the GI50 [44] was 2.92 µM. For the same compound, the TGI [44] was 11.5 µM, the GI50 [45] was 2.31 µM and the TGI [45] was 7 µM. It also gave a GI50 [46] of 6.11 µM, a TGI [46] of 21.3 µM and a GI50 [47] of 6.16 µM. For the same compound, the TGI [47] was over 100 µM, the GI50 [48] was 19.6 µM and the TGI [48] was 43 µM. The GI50 [11] was 4.06 µM, the TGI [11] was 19.7 µM and the GI50 [49] was 4.14 µM. The TGI [49] was over 100 µM, the GI50 [12] was 11.6 µM and the TGI [12] was 29.4 µM. The GI50 [13] was 12.1 µM, the TGI [13] was 36.8 µM and the GI50 [50] was 8.62 µM. It also gave a TGI [50] of 24.3 µM, a GI50 [51] of 8.58 µM and a TGI [51] of 22.8 µM. The GI50 [14] was 5.56 µM, the TGI [14] was 18.2 µM and the GI50 [52] was 3.39 µM. It also gave a TGI [52] of 14.4 µM, a GI50 [15] of 3.52 µM and a TGI [15] of 11.9 µM. For the same compound, the GI50 [16] was 4.56 µM, the TGI [16] was 33.6 µM and the GI50 [17] was 4.98 µM. It also gave a TGI [17] of 23.7 µM, a GI50 [18] of 38 µM and a TGI [18] of over 100 µM. It also gave a GI50 [53] of 2.65 µM, a TGI [53] of 12.5 µM and a GI50 [19] of 15.1 µM. It also gave a TGI [19] of 29.9 µM, a GI50 [20] of 16.5 µM and a TGI [20] of 36 µM. The GI50 [54] was 3.56 µM, the TGI [54] was over 100 µM and the GI50 [22] was 2.92 µM. It also gave a TGI [22] of 6.98 µM, a GI50 [23] of 11.9 µM and a TGI [23] of 48.3 µM.
